Where two headings read alike, the source gives them in different places.
Key:
[1] = system: HBV mRNA; test: Inhibition of HBV mRNA expression in liver of 44Bri mice, day 7 (Exp. Ex. 2-6); assay type: in vivo, HBV transgenic mice C57BL/6J-Tg(Alb1HBV)44Bri/J; details: 1 mg/kg subcutaneous, day 7 after administration
Source text: (§1) HBV transgenic mice C57BL/6J-Tg(Alb1HBV)44Bri/J: purchased from Department of Laboratory Animal Science, Peking University Health Science Center. Mice with S/COV >10 were selected before the experiment. Hereinafter, the transgenic mice were sometimes abbreviated as 44Bri model mice;
In this experimental example, the inhibitory efficiency of different concentrations of Conjugate 32 on the expression level of HBV mRNA in HBV transgenic mice C57BL/6J-Tg (Alb1HBV) 44Bri/J was investigated. […]
The expression level of HBV mRNA in the liver tissue of each mouse was determined by real-time fluorescent quantitative PCR. Specifically, the total RNA extracted from the liver tissue of each mouse was reverse-transcribed into cDNA using ImProm-II™ reverse transcription kit (Promega) according to the instructions thereof, and then the expression level of HBV mRNA in liver tissue was determined by the fluorescent quantitative PCR kit (Beijing Cowin Biosciences Co., Ltd.) and the inhibitory efficiency was calculated. In this fluorescent quantitative PCR method, GAPDH gene was used as an internal control gene, and the HBV and GAPDH were detected by using the primers for HBV and GAPDH, respectively. […]

[2] = system: HBV mRNA; test: Inhibition of HBV mRNA on day 70 (Exp. Ex. 2-7, FIG. 9); assay type: in vivo, AAV-HBV low concentration model mice; details: 1 mg/kg or 3 mg/kg, day 70 after administration
Method: (§2) The AAV-HBV low concentration model mice were used.
In a further experiment, the inhibitory effect on HBV mRNA on day 70 was tested according to the detection method of Example 6 above, and the results are shown in FIG. 9.

[3] = 90% cynomolgus monkey plasma, 37° C., period of up to 72 hours
Method: Therein, 0 hour is the time when 10 μL of the mixed solution was taken immediately after the conjugate solution was mixed well with 90% cynomolgus monkey plasma. After sampling at each time point, each mixed solution was diluted 5-fold with 1×PBS (pH7.4), and 10 μL of each diluted mixed solution was taken for electrophoresis.
20 wt % of non-denatured polyacrylamide gel was prepared. The samples for electrophoresis in each group of the above diluted samples were mixed with 4 μL of loading buffer (20 mM EDTA, 36 wt % glycerol, and 0.06 wt % aqueous solution of bromophenol blue) and loaded into each gel well for electrophoresis under 80 mA constant current for 60 minutes. After electrophoresis, the gel was stained with 1×Sybr Gold dye (Invitrogen, Cat. 11494) for 15 minutes and imaged.

[4] = system: HBsAg; details: AAV-HBV low concentration model mice, 3 mg/kg subcutaneous single dose
Method: The AAV-HBV low concentration model mice were used. After the animal models were successfully established, they were randomly divided into groups according to serum HBsAg content (five mice per group). […] The blank group was administered with only 5 mL/kg 1×PBS. Blood was collected from mouse orbital venous plexus before administration and on day 14, 28, 42, 56, 70, 84, 98, 112, 126, 140, 154, 168, 182, and 196 days after administration, and the serum HBsAg level was determined at each time point.
About 100 μL orbital blood was taken each time, and no less than 20 NL serum was collected after centrifugation. The HBsAg content in serum was determined by using HBsAg CLIA kit (Autobio, CL0310) according to the instructions provided by the manufacturer.
Normalized expression level of HBsAg=(HBsAg content after administration/HBsAg content before administration)×100%.

[5] = system: HBsAg; details: M-Tg HBV mice, 3 mg/kg subcutaneous single dose, period of up to 70 days
Method: HBV transgenic mice: named as M-Tg HBV, purchased from the Animal Department of Shanghai Public Health Center. […] Hereinafter, the transgenic mice were sometimes abbreviated as M-Tg model mice;
M-Tg HBV mice (purchased from the Animal Department of Shanghai Public Health Center) were used. […] The AAV virus used is rAAV8-1.3HBV, type D (ayw) virus, purchased from Beijing FivePlus Molecular Medicine Institute Co. Ltd., 1×10^12 viral genome (v.g.)/mL, Lot No. 2016123011. The AAV virus was diluted to 5×10^11 v.g./mL with sterilized PBS prior to the experiment. Each mouse was injected with 200 μL (that is, each mouse was injected with 1×10^11 v.g). […] Each conjugate was administered in the form of 0.2 mg/mL or 0.6 mg/mL (both calculated based on siRNA) in 0.9% aqueous sodium chloride solution, with an administration volume of 5 mL/kg mouse body weight; that is, the administration doses of each conjugate (calculated based on siRNA) were 1 mg/kg and 3 mg/kg. […] The blood was collected from mouse orbital venous plexus before administration and on day 7, 14, 21, 28, 35, 42, 49, 63, and 70 days after administration, and the serum HBsAg level was determined at each time point. […]
The inhibition rate against HBsAg is calculated according to the following equation:
wherein HBsAg content is expressed as the equivalents (UI) of HBsAg per millilitre (mL) of serum.

[6] = system: HBV DNA; test: Time course of serum HBV DNA in AAV-HBV low concentration model mice (Exp. Ex. 2-7); assay type: in vivo; details: 3 mg/kg subcutaneous single dose
Source text: as §2
Normalized expression level of HBV DNA=(HBV DNA content after administration/HBV DNA content before administration)×100%.

[7] = SD rats, subcutaneous single dose 0.5 mg/kg and 1 mg/kg
Method: In this Experimental Example, the rats in each experimental group (10 rats in each group, half male and half female) were administered with Conjugate 32 by subcutaneous injection respectively at a single dose of 1 mg/kg and 0.5 mg/kg of rat body weight. The plasma drug concentration and liver tissue drug concentration in rats at each time point were then measured.
First, SD rats were randomly divided into groups according to the body weight and gender of the rat using the [sequence] version 7.2.0 data system, and then the conjugates were administered at the designed doses, respectively. All animals were dosed based on body weight and subcutaneously administered at a single doses of 1 and 0.5 mg/kg (provided in the form of 0.1 mg/mL and 0.05 mg/mL in 0.9% aqueous sodium chloride solution, with a volume of 10 mL/kg). The rat's whole blood was collected from the jugular vein before administration and 5 minutes (±30 seconds), 30 minutes (±1 minute), 1 hour (±2 minutes), 2 hours (±2 minutes), 6 hours (±5 minutes), 24 hours (±10 minutes), 48 hours (±20 minutes), 72 hours (±20 minutes), 120 hours (±30 minutes), and 168 hours (±30 minutes) after administration. […]
The concentration of Conjugate 32 in rat plasma and liver tissue was quantitatively determined by HPLC-FLD (High Performance Liquid Fluorescence Chromatography) according to the following steps: […]

[8] = system: HBV mRNA; test: Inhibition of HBV mRNA expression in liver of 44Bri mice, day 14 (Exp. Ex. 2-4); assay type: in vivo, HBV transgenic mice C57BL/6J-Tg(Alb1HBV)44Bri/J; details: 1 mg/kg subcutaneous single dose, day 14 after administration
Source text: as §1
In this experimental example, the inhibitory efficiency of Conjugate 32 on the expression level of HBV mRNA in HBV-transgenic mice C57BL/6J-Tg (A 1b1HBV) 44Bri/J was investigated.
The HBV transgenic mice C57BL/6J-Tg (Alb1HBV) 44Bri/J used in this experimental example were purchased from the Department of Laboratory Animal Science, Peking University Health Science Center. […]
For each mouse, 1 μg of total RNA was taken, and the extracted total RNA was reverse-transcribed into cDNA using ImProm-II™ reverse transcription kit (Promega Crop.) according to the instructions thereof to obtain a solution containing cDNA, and then the expression level of HBV mRNA in liver tissue was determined by the fluorescent quantitative PCR kit (Beijing Cowin Biosciences Co., Ltd.). In this fluorescent quantitative PCR method, R-actin gene was used as an internal control gene, and HBV and 3-actin were detected by using primers for HBV and β-actin, respectively. […]

## Conjugate 32: siRNA conjugate, S SEQ ID NO 367, AS SEQ ID NO 368, Table 2A; conjugated via Compound N-62 (sense CCUUGAGGCAUACUUCAAA; antisense UUUGAAGUAUGCCUCAAGGUU; conjugated via Compound N-62, position not given here)
[1]
  inhibition rate against HBV mRNA in liver tissue: up to 91.96%
[2]
  inhibitory effect on HBV mRNA on day 70: can still inhibit the expression level of HBV mRNA to a certain extent
[3]
  stability in cynomolgus monkey plasma in vitro (semiquantitative): remain undegraded
[4]
  inhibition rate against serum HBsAg: up to 90.9%
[5]
  inhibition rate against serum HBsAg: up to 97.80%
[6]
  inhibition rate against HBV DNA in serum: up to 85.7%
[7]
  concentration in rat plasma over time: rapidly decreased to below detection limit within a few hours
  time for which the concentration in liver tissue maintained a higher and stable level: at least 150 hours
[8]
  inhibition rate against HBV mRNA in liver tissue: up to 89.86%

From patent US20230076803A1, “COMPOUND AND DRUG CONJUGATE, AND PREPARATION METHOD AND USE THEREOF” (priority 2019, published 2023)
